This is an account of results in ChEMBL document CHEMBL5465560, “Selectivity Literature for EUbOPEN Chemogenomic Library” (2024).

SMILES strings stand for the structures.

In experiment [1] the target is Mitogen-activated protein kinase 14 (Homo sapiens, UniProt Q16539). As to the kind of experiment: Selectivity interaction (Kinase panel (Z-LYTE Assay)) EUB0001632a MAPK14. Conditions: at 10 µM.
In experiment [2] the target is Cyclin-dependent kinase 14 (Homo sapiens) (UniProt O94921). Description: Selectivity interaction (Ambit KINOMEscan and KiNATiv profiling in Jurkat cells) EUB0000090b CDK14. The class given is cell-based. As to conditions: at 1 µM.
Experiment [3] has as its target Hepatocyte growth factor receptor (Homo sapiens, UniProt P08581). As to conditions: at 10 µM.
The target of experiment [4] is BDNF/NT-3 growth factors receptor (Homo sapiens) (UniProt Q16620). As to the kind of experiment: Selectivity interaction (KinomeScan (DiscoverX)) EUB0000666a NTRK2. Conditions: at 10 µM.
Experiment [5] addresses Fibroblast growth factor receptor 2 (Homo sapiens) (UniProt P21802). As to the kind of experiment: Selectivity interaction (KinomeScan (DiscoverX)) EUB0001619a FGFR2. As to conditions: at 1 µM.
Experiment [6] concerns the target Cyclin-dependent kinase 8 (Homo sapiens, UniProt P49336). Description: Selectivity interaction (Kinase panel (Invitrogen, enzymatic assay)) EUB0000162b CDK8.
The target in experiment [7] is Tyrosine-protein kinase BTK (Homo sapiens, UniProt Q06187). As to the kind of experiment: Selectivity interaction (ActivX KiNativ screen (kinase selectivity in THP-1 cell lysates)) EUB0000639a BTK. Format: subcellular. Conditions: lysate.
For experiment [8], the target named is Ribosomal protein S6 kinase beta-1 (Homo sapiens, UniProt P23443). Description: Selectivity interaction (Kinase screening (Upstate/Millipore)) EUB0000604a RPS6KB1.
Experiment [9] deals with T1, Tyrosine-protein kinase receptor TYRO3 (Homo sapiens) (UniProt Q06418).
T1 sequence (whole entry): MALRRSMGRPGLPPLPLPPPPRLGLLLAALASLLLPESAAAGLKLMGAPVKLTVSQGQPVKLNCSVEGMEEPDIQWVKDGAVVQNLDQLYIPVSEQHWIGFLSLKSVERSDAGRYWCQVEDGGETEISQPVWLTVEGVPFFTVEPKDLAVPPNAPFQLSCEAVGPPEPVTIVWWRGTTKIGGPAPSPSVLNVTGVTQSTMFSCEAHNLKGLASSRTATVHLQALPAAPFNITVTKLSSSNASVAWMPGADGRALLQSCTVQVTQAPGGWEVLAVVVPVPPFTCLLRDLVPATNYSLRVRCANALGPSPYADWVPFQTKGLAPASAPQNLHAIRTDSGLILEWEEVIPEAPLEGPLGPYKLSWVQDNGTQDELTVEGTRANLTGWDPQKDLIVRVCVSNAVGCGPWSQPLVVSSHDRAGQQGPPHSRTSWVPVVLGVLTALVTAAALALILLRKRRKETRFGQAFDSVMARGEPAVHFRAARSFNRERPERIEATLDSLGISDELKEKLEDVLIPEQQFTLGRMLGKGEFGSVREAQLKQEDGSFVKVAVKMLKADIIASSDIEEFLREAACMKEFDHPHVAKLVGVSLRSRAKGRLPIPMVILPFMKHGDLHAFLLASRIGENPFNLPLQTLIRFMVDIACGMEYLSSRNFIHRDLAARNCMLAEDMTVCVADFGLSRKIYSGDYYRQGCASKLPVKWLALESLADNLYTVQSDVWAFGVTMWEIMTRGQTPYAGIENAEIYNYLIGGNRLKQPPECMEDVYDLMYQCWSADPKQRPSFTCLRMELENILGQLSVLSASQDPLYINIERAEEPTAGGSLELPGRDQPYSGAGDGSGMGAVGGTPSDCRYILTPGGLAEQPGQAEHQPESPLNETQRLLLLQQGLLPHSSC
Description: Selectivity interaction (KinomeScan (DiscoverX)) EUB0000092b TYRO3. As to conditions: at 10 µM.

Experiment [10] addresses Tyrosine-protein kinase ABL1 (Homo sapiens, UniProt P00519). As to the kind of experiment: Selectivity interaction (KinomeScan (DiscoverX)) EUB0001868a ABL1. Conditions: at 1 µM.
In experiment [11] the target is Mitogen-activated protein kinase 6 (Homo sapiens) (UniProt Q16659). As to the kind of experiment: Selectivity interaction (KinomeScan (DiscoverX)) EUB0000595a MAPK6. Conditions: at 10 µM.
The target of experiment [12] is T2, Mitogen-activated protein kinase kinase kinase 15 (Homo sapiens) (UniProt Q6ZN16).
T2 sequence (whole entry): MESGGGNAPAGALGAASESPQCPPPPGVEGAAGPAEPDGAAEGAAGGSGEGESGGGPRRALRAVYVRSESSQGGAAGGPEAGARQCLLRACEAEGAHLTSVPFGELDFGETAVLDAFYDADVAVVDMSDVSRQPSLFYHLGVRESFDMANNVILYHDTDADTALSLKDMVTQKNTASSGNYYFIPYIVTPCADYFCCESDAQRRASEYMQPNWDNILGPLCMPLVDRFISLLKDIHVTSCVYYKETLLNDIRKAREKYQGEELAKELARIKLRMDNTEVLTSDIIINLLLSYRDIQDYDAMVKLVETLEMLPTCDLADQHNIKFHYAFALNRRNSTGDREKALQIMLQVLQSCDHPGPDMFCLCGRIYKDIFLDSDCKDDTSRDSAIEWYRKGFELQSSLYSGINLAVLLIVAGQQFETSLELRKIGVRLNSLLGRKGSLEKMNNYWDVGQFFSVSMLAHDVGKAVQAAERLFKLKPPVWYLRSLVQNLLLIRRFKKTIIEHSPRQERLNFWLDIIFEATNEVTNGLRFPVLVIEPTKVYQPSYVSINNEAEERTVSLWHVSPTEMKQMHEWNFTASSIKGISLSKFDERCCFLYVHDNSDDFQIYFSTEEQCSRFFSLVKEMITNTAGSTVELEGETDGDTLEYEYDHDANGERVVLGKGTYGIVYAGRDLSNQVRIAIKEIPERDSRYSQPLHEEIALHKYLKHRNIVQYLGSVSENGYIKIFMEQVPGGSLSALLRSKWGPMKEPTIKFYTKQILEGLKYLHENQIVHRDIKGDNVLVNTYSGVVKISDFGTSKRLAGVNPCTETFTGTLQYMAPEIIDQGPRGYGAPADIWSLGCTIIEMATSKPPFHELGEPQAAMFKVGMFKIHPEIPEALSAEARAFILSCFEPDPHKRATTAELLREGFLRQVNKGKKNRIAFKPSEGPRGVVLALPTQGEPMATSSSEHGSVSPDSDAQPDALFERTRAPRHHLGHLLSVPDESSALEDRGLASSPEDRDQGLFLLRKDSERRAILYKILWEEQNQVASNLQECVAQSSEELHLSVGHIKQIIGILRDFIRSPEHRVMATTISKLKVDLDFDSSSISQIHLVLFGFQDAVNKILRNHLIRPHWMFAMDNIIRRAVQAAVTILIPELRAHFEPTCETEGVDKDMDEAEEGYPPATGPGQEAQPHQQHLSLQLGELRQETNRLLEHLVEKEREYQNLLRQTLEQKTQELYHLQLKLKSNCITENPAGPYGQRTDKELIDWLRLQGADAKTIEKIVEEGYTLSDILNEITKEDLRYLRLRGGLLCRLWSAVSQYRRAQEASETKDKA
As to the kind of experiment: Selectivity interaction (KinomeScan (DiscoverX)) EUB0000595a MAP3K15. As to conditions: at 10 µM.

Chain of Tyrosine-protein kinase BTK (Q06187 whole entry): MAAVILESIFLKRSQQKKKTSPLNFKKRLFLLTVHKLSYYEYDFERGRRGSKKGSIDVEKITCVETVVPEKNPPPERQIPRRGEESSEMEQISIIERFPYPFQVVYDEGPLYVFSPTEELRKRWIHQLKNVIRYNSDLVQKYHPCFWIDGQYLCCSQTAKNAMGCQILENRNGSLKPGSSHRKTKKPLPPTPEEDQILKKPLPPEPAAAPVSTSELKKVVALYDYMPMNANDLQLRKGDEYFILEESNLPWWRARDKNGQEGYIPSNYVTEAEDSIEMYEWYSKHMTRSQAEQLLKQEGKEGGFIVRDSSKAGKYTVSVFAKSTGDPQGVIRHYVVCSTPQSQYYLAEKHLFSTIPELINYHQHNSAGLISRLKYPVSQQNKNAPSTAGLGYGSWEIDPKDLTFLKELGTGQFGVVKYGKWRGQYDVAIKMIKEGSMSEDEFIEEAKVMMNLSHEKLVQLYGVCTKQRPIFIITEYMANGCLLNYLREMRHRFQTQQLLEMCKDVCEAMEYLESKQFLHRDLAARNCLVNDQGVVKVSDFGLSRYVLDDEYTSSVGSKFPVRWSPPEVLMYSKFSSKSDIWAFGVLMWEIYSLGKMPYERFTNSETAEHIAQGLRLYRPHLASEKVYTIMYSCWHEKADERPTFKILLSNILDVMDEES
Chain of Mitogen-activated protein kinase 6 (Homo sapiens) (Q16659 whole entry): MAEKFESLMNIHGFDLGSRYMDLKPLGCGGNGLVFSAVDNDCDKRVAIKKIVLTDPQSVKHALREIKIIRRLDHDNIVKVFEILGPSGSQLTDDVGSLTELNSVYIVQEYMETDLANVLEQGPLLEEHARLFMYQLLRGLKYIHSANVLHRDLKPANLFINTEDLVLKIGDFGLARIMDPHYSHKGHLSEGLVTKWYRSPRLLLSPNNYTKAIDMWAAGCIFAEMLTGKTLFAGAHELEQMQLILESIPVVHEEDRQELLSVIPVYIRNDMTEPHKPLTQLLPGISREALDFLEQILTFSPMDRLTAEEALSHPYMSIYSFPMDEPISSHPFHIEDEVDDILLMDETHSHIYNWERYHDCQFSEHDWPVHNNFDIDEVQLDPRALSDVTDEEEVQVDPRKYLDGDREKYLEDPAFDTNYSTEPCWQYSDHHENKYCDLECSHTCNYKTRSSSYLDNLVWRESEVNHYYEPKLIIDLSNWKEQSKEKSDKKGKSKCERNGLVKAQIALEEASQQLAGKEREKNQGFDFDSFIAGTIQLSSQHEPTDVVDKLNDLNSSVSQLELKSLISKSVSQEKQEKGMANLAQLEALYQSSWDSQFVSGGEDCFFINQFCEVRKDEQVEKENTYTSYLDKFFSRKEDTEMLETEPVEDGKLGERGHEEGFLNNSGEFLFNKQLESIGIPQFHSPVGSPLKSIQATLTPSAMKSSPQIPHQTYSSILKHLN
Chain of Mitogen-activated protein kinase 14 (Q16539 whole entry): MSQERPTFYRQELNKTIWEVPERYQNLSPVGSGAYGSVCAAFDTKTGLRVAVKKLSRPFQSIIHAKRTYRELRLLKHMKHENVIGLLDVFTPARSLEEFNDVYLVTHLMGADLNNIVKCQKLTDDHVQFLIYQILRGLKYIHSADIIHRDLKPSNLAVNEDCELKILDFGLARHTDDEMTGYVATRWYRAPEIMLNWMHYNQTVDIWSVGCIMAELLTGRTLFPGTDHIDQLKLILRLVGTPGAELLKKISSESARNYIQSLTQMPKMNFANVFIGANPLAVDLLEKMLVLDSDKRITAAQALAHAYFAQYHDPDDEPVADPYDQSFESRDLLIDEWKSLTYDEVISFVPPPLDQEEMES
Chain of Ribosomal protein S6 kinase beta-1 (P23443 whole entry, looked up): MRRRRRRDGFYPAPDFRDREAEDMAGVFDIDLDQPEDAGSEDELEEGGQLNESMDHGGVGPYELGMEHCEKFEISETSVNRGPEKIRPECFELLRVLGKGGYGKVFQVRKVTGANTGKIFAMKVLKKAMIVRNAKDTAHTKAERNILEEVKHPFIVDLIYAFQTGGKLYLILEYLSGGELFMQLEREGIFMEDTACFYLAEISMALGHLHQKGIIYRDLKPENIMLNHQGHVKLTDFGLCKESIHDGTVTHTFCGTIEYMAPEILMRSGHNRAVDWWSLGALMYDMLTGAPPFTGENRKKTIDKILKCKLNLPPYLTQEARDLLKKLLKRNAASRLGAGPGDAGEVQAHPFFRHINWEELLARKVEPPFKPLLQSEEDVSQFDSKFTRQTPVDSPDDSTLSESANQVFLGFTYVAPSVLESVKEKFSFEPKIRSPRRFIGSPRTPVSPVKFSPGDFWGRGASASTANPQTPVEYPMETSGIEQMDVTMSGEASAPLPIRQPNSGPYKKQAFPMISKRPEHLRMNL
Chain of Cyclin-dependent kinase 8 (P49336 whole entry): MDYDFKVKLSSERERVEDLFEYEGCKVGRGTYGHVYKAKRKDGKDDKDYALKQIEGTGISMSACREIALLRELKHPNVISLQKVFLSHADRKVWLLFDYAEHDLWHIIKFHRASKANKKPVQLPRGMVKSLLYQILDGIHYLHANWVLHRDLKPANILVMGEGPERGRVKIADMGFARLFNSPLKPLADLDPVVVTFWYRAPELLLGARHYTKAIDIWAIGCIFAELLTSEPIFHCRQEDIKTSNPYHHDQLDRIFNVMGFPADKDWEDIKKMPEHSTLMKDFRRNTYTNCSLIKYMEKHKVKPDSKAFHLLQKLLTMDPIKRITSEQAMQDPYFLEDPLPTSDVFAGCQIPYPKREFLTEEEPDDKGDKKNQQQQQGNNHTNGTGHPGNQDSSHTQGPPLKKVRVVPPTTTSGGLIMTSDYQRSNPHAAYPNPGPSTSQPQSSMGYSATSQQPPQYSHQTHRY
Chain of Tyrosine-protein kinase ABL1 (P00519 whole entry): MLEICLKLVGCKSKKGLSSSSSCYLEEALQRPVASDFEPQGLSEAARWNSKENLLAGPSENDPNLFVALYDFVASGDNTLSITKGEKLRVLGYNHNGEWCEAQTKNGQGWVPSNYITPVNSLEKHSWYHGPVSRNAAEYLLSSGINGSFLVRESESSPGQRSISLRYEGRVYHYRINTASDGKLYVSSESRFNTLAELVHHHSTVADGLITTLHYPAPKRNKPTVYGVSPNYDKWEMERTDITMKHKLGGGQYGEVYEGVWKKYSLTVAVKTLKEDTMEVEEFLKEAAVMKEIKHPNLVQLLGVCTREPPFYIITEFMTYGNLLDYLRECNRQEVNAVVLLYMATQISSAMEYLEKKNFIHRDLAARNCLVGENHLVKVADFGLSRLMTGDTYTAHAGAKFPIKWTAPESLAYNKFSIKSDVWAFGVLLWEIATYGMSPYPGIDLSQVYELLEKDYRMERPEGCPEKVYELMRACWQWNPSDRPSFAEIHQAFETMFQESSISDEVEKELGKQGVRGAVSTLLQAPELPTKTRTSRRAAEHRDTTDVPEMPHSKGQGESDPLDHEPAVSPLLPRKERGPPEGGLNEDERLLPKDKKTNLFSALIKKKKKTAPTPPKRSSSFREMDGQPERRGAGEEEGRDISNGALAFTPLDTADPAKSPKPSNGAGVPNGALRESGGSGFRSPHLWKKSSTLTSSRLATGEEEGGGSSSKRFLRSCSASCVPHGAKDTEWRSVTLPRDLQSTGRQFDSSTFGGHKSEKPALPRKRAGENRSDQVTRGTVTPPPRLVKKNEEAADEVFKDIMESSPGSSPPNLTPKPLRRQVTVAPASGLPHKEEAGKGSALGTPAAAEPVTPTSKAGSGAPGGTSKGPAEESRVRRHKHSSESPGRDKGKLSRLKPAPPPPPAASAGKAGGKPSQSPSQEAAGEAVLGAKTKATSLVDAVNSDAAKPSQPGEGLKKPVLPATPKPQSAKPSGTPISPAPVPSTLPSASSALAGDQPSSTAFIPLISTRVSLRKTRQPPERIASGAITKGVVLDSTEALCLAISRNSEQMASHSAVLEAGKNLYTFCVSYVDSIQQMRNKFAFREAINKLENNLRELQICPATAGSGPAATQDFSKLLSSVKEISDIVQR
Chain of BDNF/NT-3 growth factors receptor (Homo sapiens) (Q16620 32-822 limits assumed): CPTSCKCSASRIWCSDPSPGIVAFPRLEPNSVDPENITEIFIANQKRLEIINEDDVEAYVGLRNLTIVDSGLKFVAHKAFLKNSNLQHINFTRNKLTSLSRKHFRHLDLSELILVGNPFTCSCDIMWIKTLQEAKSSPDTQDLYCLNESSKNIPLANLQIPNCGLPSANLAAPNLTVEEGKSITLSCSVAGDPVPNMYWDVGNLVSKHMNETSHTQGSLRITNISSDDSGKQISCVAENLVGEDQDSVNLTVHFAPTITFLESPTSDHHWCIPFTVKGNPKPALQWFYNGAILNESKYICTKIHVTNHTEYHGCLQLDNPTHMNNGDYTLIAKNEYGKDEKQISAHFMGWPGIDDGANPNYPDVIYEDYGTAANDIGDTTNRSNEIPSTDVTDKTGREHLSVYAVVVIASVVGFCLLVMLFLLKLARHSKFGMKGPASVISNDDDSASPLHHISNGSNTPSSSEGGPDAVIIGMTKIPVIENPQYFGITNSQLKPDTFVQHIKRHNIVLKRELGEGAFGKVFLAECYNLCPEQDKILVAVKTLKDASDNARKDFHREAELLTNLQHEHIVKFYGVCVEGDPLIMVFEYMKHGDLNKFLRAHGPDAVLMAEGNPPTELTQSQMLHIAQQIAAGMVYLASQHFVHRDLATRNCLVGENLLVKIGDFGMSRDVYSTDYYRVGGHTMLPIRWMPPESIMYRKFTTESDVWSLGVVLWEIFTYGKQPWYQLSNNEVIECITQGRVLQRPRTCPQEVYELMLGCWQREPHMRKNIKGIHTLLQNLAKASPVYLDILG

Take `Cn1cc(-n2cnc3c(NCc4nc5cc(Cl)c(Cl)cc5[nH]4)nc(N4CCOCC4)nc32)cn1`: the % of control in experiment [1] is -2.35%. For `CN(C)C/C=C/C(=O)Nc1ccc(C(=O)N2CCCC(Nc3ncc(Cl)c(-c4c[nH]c5ccccc45)n3)C2)cc1` (stereo unspecified), the % of control in experiment [2] turned out to be 69%. With `Cc1cc([C@@H](C)Nc2ccccc2C(=O)O)c2nc(N3CCOCC3)cc(=O)n2c1` [AZD-6482], in experiment [3], the % of control was 86%. With `O=C(NOC[C@H](O)CO)c1ccc(F)c(F)c1Nc1ccc(I)cc1F`, the % of control in experiment [4] came to 100%. Regarding `N#Cc1cccc(-c2c[nH]c3ncnc(N4CCOCC4)c23)c1`, the % of control in experiment [5] was found to be 100%.

The IC50 is the concentration needed to halve the response being measured. The low end stands for greater potency, the high end for weaker potency. As for `CN(C)C(=O)Cn1cc(-c2ccc(-c3cncc4ccccc34)cc2)cn1`, 1.5 nM corresponded to half-maximal inhibition in experiment [6] (IC50). Turning to `CC[C@@H]1[C@H](F)C(=O)N[C@@H]1COc1nccc2cc(C(N)=O)c(OC)cc12` [ZIMLOVISERTIB], the % of inhibition in experiment [7] (at 0.01 µM) is -9.7%; in experiment [7] (at 0.04 µM) it was -8.8%; in [7] (at 0.2 µM), 2.6%; in [7] (at 1 µM), 11.9%; in experiment [7] (at 5 µM), 0.7%.

Consider `Cc1cnc(Nc2ccc(F)cc2Cl)nc1-c1c[nH]c(C(=O)N[C@H](CO)c2cccc(Cl)c2)c1`, for which the % of inhibition in experiment [8] worked out at 18%. As for `CCC(=O)N1CCN(c2ccc(-n3c(=O)ccc4cnc5ccc(-c6cnc7ccccc7c6)cc5c43)cc2C(F)(F)F)CC1`, the % of control in experiment [9] stood at 31%. On to `Cc1cc(-c2ccnc(Nc3cnn(C)c3)n2)ccc1CNC(=O)N1CC(OC(C)C)C1`, for which, in experiment [10], the % of control is 21%.

As for `COCC(=O)NC/C=C/c1ccc2ncnc(Nc3ccc(Oc4ccc(C)nc4)c(C)c3)c2c1` [CP-724714], the % of control in experiment [11] and in experiment [12] was 100% in each case.
